Measured values from patent US20230023559A1, “ARYLMETHYLENE HETEROCYCLIC COMPOUNDS AS KV1.3 POTASSIUM SHAKER CHANNEL BLOCKERS” (D. E. Shaw Research, LLC, priority 2019, published 2023).

Key:
[1] = target: T1, Kv1.3 potassium channel (Homo sapiens, UniProt P22001); assay: Kv1.3 potassium channel blocker activity, automated whole-cell patch clamp (Patchliner); format: cell-based; conditions: CHO-K1 cells stably expressing Kv1.3; whole cell current inhibition; read-out: Kv1.3_IC50
T1 construct: expressed in transfected cells
T1 sequence (P22001 whole entry): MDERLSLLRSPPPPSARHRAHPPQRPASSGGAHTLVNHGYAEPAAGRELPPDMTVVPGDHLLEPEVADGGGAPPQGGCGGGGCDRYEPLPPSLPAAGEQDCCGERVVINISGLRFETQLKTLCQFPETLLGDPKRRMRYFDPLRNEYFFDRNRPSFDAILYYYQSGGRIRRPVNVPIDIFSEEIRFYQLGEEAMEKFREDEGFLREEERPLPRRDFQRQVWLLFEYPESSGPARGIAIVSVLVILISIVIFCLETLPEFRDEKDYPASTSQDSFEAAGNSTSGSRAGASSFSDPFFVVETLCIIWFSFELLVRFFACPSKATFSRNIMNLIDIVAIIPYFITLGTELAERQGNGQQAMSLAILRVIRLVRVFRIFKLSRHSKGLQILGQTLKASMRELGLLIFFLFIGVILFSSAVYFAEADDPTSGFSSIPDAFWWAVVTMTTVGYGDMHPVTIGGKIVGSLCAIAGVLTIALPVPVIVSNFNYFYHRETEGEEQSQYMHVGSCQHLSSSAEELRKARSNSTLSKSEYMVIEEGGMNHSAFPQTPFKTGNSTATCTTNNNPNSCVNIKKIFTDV
Procedure, shortened: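 CHO-K1 cells stably expressing Kv1.3, automated whole-cell patch clamp. Currents evoked by 100 ms steps from −90 mV holding to +40 mV at 0.1 Hz, sampled at 10 kHz unfiltered, P/4 leak subtraction; peak current inhibition measured, compound incubation ≤10 s between pulse trains.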

[2] = target: hERG channel (Homo sapiens, UniProt Q12809); assay: hERG electrophysiology, automated whole-cell patch clamp (Patchliner)
Sequence of hERG channel (Q12809 whole entry): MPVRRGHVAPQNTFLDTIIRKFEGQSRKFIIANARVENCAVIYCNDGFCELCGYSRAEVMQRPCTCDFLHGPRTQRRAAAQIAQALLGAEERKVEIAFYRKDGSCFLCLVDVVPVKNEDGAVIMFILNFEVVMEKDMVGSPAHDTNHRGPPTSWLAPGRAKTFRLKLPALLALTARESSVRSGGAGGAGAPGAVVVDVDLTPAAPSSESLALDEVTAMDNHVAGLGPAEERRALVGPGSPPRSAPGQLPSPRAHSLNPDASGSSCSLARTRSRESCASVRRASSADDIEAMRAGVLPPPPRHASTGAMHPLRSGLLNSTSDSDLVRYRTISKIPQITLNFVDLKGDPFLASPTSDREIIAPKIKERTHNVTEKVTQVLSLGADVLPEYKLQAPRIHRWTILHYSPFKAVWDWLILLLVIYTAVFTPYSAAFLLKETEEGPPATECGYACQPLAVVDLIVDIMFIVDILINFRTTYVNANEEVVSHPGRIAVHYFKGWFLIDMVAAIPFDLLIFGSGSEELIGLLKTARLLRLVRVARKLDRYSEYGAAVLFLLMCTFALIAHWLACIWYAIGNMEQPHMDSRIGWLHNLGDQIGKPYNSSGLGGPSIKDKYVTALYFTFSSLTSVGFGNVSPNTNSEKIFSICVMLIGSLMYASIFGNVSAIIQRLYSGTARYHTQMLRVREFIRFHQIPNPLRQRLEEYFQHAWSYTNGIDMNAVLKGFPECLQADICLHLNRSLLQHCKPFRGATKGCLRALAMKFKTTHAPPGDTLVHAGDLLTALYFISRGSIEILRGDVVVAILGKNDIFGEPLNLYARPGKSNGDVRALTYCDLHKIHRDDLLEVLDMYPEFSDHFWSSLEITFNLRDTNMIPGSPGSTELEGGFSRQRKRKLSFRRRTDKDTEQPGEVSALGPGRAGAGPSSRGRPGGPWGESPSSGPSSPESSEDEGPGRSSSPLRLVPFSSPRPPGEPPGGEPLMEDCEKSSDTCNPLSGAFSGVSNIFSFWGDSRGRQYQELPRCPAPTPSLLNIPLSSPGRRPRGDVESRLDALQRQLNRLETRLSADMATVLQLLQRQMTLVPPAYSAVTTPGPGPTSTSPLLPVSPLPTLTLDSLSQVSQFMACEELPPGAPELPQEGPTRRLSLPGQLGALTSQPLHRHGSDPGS

Row | IC50 [1] | SMILES | IC50 [2]
1 | < 0.5 µM | N[C@@H](c1cc(Cl)c(Cl)cc1O)C1CCN(C(=O)[C@@H]2CCN2)CC1 [Compound 100, 2-[(R)-amino([1-[(2S)-azetidine-2-carbonyl]piperidin-4-yl])methyl]-4,5-dichlorophenol] | > 30 µM
2 | < 10 µM | O=C([C@@H]1CCNC1)N1CCC(C(O)c2c(O)ccc(Cl)c2Cl)CC1 (stereo partly drawn) [Compound 126, 3,4-dichloro-2-[hydroxy([1-[(3R)-pyrrolidine-3-carbonyl]piperidin-4-yl])methyl]phenol Trifluoroacetic Acid] | > 30 µM
3 | < 10 µM | CC(=O)N1CCC(C(N)c2cc(Cl)c(Cl)cc2O)CC1 (stereo not drawn) [Compound 9, 1-(4-(amino(4,5-dichloro-2-hydroxyphenyl)methyl)piperidin-1-yl)ethanone] | > 30 µM
4 | < 0.5 µM | N[C@@H](c1cc2ccccc2cc1O)C1CCN(C(=O)[C@H](O)CO)CC1 [Compound 189, (2R)-1-[4-[(R)-amino(3-hydroxynaphthalen-2-yl)methyl]piperidin-1-yl]-2,3-dihydroxypropan-1-one Trifluoroacetic Acid] | > 30 µM
5 | < 0.5 µM | N[C@@H](c1cc(Cl)c(Cl)cc1O)C1CCN(S(=O)(=O)C2CCNC2)CC1 (stereo partly drawn) [Compound 110, 2-[(R)-amino[1-(pyrrolidine-3-sulfonyl)piperidin-4-yl]methyl]-4,5-dichlorophenol] | > 30 µM
6 | < 0.5 µM | N[C@@H](c1cc(Cl)c(Cl)cc1O)C1CCN(C(=O)NCCO)CC1 [Compound 209, 4-[(R)-amino(4,5-dichloro-2-hydroxyphenyl)methyl]-N-(2-hydroxyethyl)piperidine-1-carboxamide Trifluoroacetic Acid] | > 30 µM
7 | < 0.5 µM | NCC(=O)N1CCC([C@@H](N)c2cc(Cl)c(Cl)cc2O)CC1 [Compound 92, 2-amino-1-[4-[(R)-amino(4,5-dichloro-2-hydroxyphenyl)methyl]piperidin-1-yl]ethan-1-one Trifluoroacetic Acid] | > 30 µM
8 | < 10 µM | CC1(O)CC(C(=O)N2CCC([C@@H](N)c3cc(Cl)c(Cl)cc3O)CC2)C1 (stereo partly drawn) [Compound 163, 2-[(R)-amino[1-(3-hydroxy-3-methylcyclo-butanecarbonyl)piperidin-4-yl]methyl]-4,5-dichlorophenol] | > 30 µM
9 | < 10 µM | N[C@@H](c1cc(Cl)c(Cl)cc1O)C1CCN(C(=O)c2ccn[nH]2)CC1 [Compound 136, 2-[(R)-amino[1-(1H-pyrazole-3-carbonyl)piperidin-4-yl]methyl]-4,5-dichlorophenol trifluoroacetic acid] | > 30 µM
10 | < 10 µM | N[C@@H](c1cc(Cl)c(Cl)cc1O)C1CCN(C(=O)C2COCCN2)CC1 (stereo partly drawn) [Compound 144, 2-[(R)-amino[1-(morpholine-3-carbonyl)piperidin-4-yl]methyl]-4,5-dichlorophenol trifluoroacetic acid] | > 30 µM
11 | < 0.5 µM | N[C@@H](c1cc(Cl)c(Cl)cc1O)C1CCN(C(=O)[C@H]2CNC(=O)CO2)CC1 (single isomer, unassigned; isomer 2) [Compound 276] | > 30 µM
12 | < 10 µM | N[C@@H](c1cc(Cl)c(Cl)cc1O)C1CCN(C(=O)C2CC3(CC(O)C3)C2)CC1 (stereo partly drawn) [Compound 320, 6-[4-[(R)-amino(4,5-dichloro-2-hydroxyphenyl)methyl]piperidine-1-carbonyl]spiro [3.3]heptan-2-ol trifluoroacetic acid] | < 30 µM
13 | < 0.5 µM | N[C@@H](c1cc(Cl)c(Cl)cc1O)C1CCN(C(=O)[C@H]2C[C@H](O)C2)CC1 [Compound 139, 2-[(R)-amino([1-[(1R,3R)-3-hydroxycyclo-butanecarbonyl]piperidin-4-yl])methyl]-4,5-dichlorophenol trifluoroacetic acid] | > 30 µM
14 | < 0.5 µM | NC(c1cc(Cl)c(Cl)cc1O)C1CCN(C(=O)CO)CC1 (stereo not drawn) [Compound 47, 1-[4-[amino(4,5-dichloro-2-hydroxyphenyl)methyl]piperidin-1-yl]-2-hydroxyethan-1-one] | > 30 µM
15 | < 10 µM | CC(=O)NC(c1c(O)ccc2ccccc12)C1CCNCC1 (stereo not drawn) [Compound 36, N-[(2-hydroxynaphthalen-1-yl)(piperidin-4-yl)methyl]acetamide Trifluoroacetic Acid] | > 30 µM
16 | < 10 µM | Oc1cc(Cl)c(Cl)cc1C(O)C1CCNCC1 (stereo not drawn) [Compound 2, 4,5-dichloro-2-[hydroxy(piperidin-4-yl)methyl]phenol] | > 30 µM
17 | < 10 µM | N[C@@H](c1cc(Cl)c(Cl)cc1O)C1CCN(C(=O)c2nnc[nH]2)CC1 [Compound 152, (R)-(4-(amino(4,5-dichloro-2-hydroxyphenyl)methyl)piperidin-1-yl)(1H-1,2,4-triazol-3-yl)methanone trifluoroacetic acid] | > 30 µM

Row | IC50 [1] | SMILES | IC50 [2]
18 | < 0.5 µM | Cc1cc(O)c([C@H](N)C2CCN(C(=O)C3CCS(=O)(=O)CC3)CC2)cc1Cl [Compound 247, (R)-(4-(amino(5-chloro-2-hydroxy-4-methylphenyl)methyl)piperidin-1-yl)(1,1-dioxidotetrahydro-2H-thiopyran-4-yl)methanone trifluoroacetic acid] | > 30 µM
19 | < 0.5 µM | Cc1cc(O)c([C@H](N)C2CCN(C(=O)c3ccc4c(c3)CNC4=O)CC2)cc1Cl [Compound 324, 5-[4-[(R)-amino(5-chloro-2-hydroxy-4-methylphenyl)methyl]piperidine-1-carbonyl]-2,3-dihydroisoindol-1-one trifluoroacetic acid] | > 30 µM
20 | < 0.5 µM | C[C@]1(C(=O)N2CCC([C@@H](N)c3cc(Cl)c(Cl)cc3O)CC2)CCCN1 [Compound 96] | > 30 µM
21 | < 0.5 µM | N[C@@H](c1cc(Cl)c(Cl)cc1O)C1CCNCC1 (single isomer, unassigned) [Compound 16, Trifluoroacetic Acid] | > 30 µM
22 | < 0.5 µM | Cn1ccc(N2CCC([C@@H](N)c3cc(Cl)c(Cl)cc3O)CC2)cc1=O [Compound 297, 4-[4-[(R)-amino(4,5-dichloro-2-hydroxyphenyl)methyl]piperidin-1-yl]-1-methylpyridin-2-one] | < 30 µM
23 | < 10 µM | N[C@@H](c1cc(Cl)c(Cl)cc1O)C1CCN(C(=O)C2CCNC(=O)C2)CC1 (stereo partly drawn) [Compound 172, 4-[4-[(R)-amino(4,5-dichloro-2-hydroxyphenyl)methyl]piperidine-1-carbonyl] piperidin-2-one trifluoroacetic acid] | > 30 µM
24 | < 0.5 µM | C[C@H]1C[C@H]([C@@H](N)c2cc(Cl)c(Cl)cc2O)CCN1C(=O)[C@H](O)CO [Compound 326, (2R)-1-[(2S,4R)-4-[(R)-amino(4,5-dichloro-2-hydroxyphenyl)methyl]-2-methylpiperidin-1-yl]-2,3-dihydroxypropan-1-one Trifluoroacetic Acid] | > 30 µM
25 | < 0.5 µM | N[C@@H](c1cc(Cl)c(Cl)cc1O)C1CCN(C(=O)c2cn[nH]n2)CC1 [Compound 157, 2-[(R)-amino[1-(1H-1,2,3-triazole-4-carbonyl)piperidin-4-yl]methyl]-4,5-dichlorophenol trifluoroacetic acid] | > 30 µM
26 | < 10 µM | CC(C)(CO)C(=O)N1CCC([C@@H](N)c2cc(Cl)c(Cl)cc2O)CC1 [Compound 142, 1-[4-[(R)-amino(4,5-dichloro-2-hydroxyphenyl)methyl]piperidin-1-yl]-3-hydroxy-2,2-dimethylpropan-1-one trifluoroacetic acid] | < 30 µM
27 | < 10 µM | NC(c1cc(Cl)c(Cl)cc1O)C1CCN(S(=O)(=O)N2CCCC2)CC1 (stereo not drawn) [Compound 45, 2-(amino(1-(pyrrolidin-1-ylsulfonyl)piperidin-4-yl)methyl)-4,5-dichlorophenol Trifluoroacetic Acid] | < 30 µM
28 | < 10 µM | C[C@H](N)C(=O)N1CCC([C@H](N)c2cc(Cl)c(Cl)cc2O)CC1 (single isomer, unassigned) [Compound 75] | > 30 µM
29 | < 0.5 µM | Nc1[nH]ncc1C(=O)N1CCC([C@@H](N)c2cc(Cl)c(Cl)cc2O)CC1 [Compound 211, 2-[(R)-amino[1-(5-amino-1H-pyrazole-4-carbonyl)piperidin-4-yl]methyl]-4,5-dichlorophenol trifluoroacetic acid] | > 30 µM
30 | < 0.5 µM | N[C@@H](c1cc(Cl)c(Cl)cc1O)C1CCN(C(=O)c2c[nH]c(=O)cn2)CC1 [Compound 186, (R)-5-(4-(amino(4,5-dichloro-2-hydroxyphenyl)methyl)piperidine-1-carbonyl) pyrazin-2(1H)-one] | > 30 µM
31 | < 0.5 µM | CN1CC(C(=O)N2CCC([C@@H](N)c3cc(Cl)c(Cl)cc3O)CC2)NCC1=O (stereo partly drawn) [Compound 300, 5-[4-[(R)-amino(4,5-dichloro-2-hydroxyphenyl)methyl]piperidine-1-carbonyl]-1-methylpiperazin-2-one Trifluoroacetic Acid] | > 30 µM
32 | < 0.5 µM | Nc1cc(C(=O)N2CCC([C@@H](N)c3cc(Cl)c(Cl)cc3O)CC2)ccn1 [Compound 301, 2-[(R)-amino[1-(2-aminopyridine-4-carbonyl)piperidin-4-yl]methyl]-4,5-dichlorophenol trifluoroacetic acid] | > 30 µM
33 | < 0.5 µM | N[C@@H](c1cc(Cl)c(Cl)cc1O)C1CCN(c2cc[nH]c(=O)c2)CC1 [Compound 180, 4-[4-[(R)-amino(4,5-dichloro-2-hydroxyphenyl)methyl]piperidin-1-yl]-1,2-dihydropyridin-2-one Trifluoroacetic Acid] | > 30 µM
